{
  "source": "ChEMBL document CHEMBL1150846",
  "about": "“Thorectandrols A and B, new cytotoxic sesterterpenes from the marine sponge Thorectandra species” (J Nat Prod, 2001)",
  "key": {"[1]": {"tested_on": "MCF7", "assay": "Cytotoxicity against human MCF7 cells after 2 days by XTT assay", "type": "functional, cell-based", "conditions": "MCF7, 48 h"}, "[2]": {"tested_on": "Malme-3M", "assay": "Cytotoxicity against human MALME-3M cells after 2 days by XTT assay", "type": "functional, cell-based", "conditions": "48 h"}},
  "data": [
    {"smiles": "C=C1CCC[C@@H]2[C@@](C)(CC/C(C)=C/C[C@@H](O)C3=CC(=O)OC3O)[C@@H](C)CC[C@@]12C", "note": "(some centres not stated) [PALAUOLOL]", "values": [
      {"measurement": "IC50", "setting": "[1]", "value": 14.2, "unit": "µg/mL"},
      {"measurement": "IC50", "setting": "[2]", "value": 0.46, "unit": "µg/mL"}
    ]}
  ]
}
